Values quoted from earlier work, collected in patent US20110262453A1, “Markers for Assessing the Susceptibility of Cancer to IGF-1R Treatment” (priority 2008, published 2011).
Values belong to the compound of their own block, whether it stands above or below them.

How the values were obtained:
IGF-1R over IR = IGF-1R over IR (Homo sapiens, UniProt P08069)
[1] = test system: cultured IGF-1R-positive tumor cells
IGF-1R = IGF-1R (Homo sapiens, UniProt P08069)
[2] = test system: xenografted and allografted mice

Sequence of IGF-1R over IR (P08069 31-1367): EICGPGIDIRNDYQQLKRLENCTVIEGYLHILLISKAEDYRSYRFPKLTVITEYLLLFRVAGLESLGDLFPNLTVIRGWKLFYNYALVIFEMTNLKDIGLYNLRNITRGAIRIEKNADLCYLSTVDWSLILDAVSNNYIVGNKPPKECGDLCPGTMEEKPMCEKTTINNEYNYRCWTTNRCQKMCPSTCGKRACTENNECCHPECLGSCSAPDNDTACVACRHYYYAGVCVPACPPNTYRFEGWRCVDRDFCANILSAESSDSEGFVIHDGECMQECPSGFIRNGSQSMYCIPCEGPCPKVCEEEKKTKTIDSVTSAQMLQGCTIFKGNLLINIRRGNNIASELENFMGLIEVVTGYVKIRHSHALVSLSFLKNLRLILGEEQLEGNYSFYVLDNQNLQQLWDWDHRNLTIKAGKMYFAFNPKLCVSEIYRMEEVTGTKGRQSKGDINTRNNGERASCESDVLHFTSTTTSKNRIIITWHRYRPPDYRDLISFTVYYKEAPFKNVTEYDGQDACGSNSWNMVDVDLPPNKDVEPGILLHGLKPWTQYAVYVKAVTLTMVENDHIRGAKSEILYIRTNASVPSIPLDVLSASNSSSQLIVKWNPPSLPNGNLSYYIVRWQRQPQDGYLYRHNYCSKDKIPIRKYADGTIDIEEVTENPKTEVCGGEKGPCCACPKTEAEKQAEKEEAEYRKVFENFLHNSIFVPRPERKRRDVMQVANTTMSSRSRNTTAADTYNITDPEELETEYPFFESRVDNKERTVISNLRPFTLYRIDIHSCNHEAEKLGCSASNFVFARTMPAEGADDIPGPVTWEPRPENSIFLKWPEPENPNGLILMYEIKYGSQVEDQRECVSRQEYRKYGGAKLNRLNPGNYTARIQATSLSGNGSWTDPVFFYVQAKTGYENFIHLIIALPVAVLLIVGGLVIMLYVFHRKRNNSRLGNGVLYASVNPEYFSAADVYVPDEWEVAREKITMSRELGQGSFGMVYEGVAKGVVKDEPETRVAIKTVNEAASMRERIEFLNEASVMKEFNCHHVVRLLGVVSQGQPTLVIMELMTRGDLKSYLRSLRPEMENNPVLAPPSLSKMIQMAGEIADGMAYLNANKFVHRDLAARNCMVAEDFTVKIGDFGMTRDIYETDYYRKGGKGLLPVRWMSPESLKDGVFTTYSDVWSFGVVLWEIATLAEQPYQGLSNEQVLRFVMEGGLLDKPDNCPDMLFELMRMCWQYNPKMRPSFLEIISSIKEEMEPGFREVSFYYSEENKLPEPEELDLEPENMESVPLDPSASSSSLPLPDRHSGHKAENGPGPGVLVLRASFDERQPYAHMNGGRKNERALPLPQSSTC
Sequence of IGF-1R (P08069 31-1367): as above

selectivity towards IGF-1R over IR (in words) (IGF-1R over IR): some selectivity
SMILES: N#C/C(=C\c1ccc(O)c(O)c1)C(=O)c1ccc(O)c(O)c1 [AG538]

SMILES: CC(C)(C)c1cc(C=C(C#N)C#N)cc(Br)c1O [AG1024]
selectivity towards IGF-1R over IR (in words) (IGF-1R over IR): some selectivity

selectivity towards IGF-1R over IR (IGF-1R over IR): 100 fold
SMILES: Nc1ncnc2c1c(-c1cccc(OCc3ccccc3)c1)cn2C1CC(CN2CCC2)C1 (centres unmarked) [NVP-AEW541]

SMILES: COc1cc([C@@H]2c3cc4c(cc3[C@H](O)[C@H]3COC(=O)[C@@H]23)OCO4)cc(OC)c1OC [PPP, picropodophyllin]
apoptosis [1]: induced apoptosis
pAkt and phosphorylated extracellular signal regulated kinase 1 and 2 (pErk1/2) [1]: reduced
IGF-1R activity (IGF-1R): efficiently blocked IGF-1R activity
LD50 (rodents): > 500 mg/kg
tumor regression [2]: complete tumor regression
